Experimental data taken from paper PMC3705412, “PTP1B Inhibitory and Anti-Inflammatory Effects of Secondary Metabolites Isolated from the Marine-Derived Fungus Penicillium sp. JF-55” (Marine Drugs, 2013).

Experiments:
Assay type in all cases: cell-based, murine (C57BL/6 mice)
[1] = test system: iNOS-derived NO production in murine peritoneal macrophages; assay: Nitrite (NO) production in LPS-stimulated macrophages, Griess reaction; settings: Mus musculus, Peritoneal macrophage; pre-treated 12 h, LPS 1 μg/mL 18 h
Method: The expression of pro-inflammatory enzymes, including COX-2 and iNOS, plays an important role in immune-activated macrophages via the production of COX-2-derived PGE2 and iNOS-derived NO [20, 21]. To investigate the effects of compounds on iNOS-derived NO and COX-2-derived PGE2 production, and iNOS and COX-2 expression in LPS-stimulated macrophages, murine peritoneal macrophages were stimulated with LPS (1 μg/mL) for 18 h in the presence or absence of non-cytotoxic concentrations of compounds 1–3 (Figure S1). […] The finding that penstyrylpyrone (1) suppressed LPS-induced pro-inflammatory mediators, such as NO, PGE2, iNOS, and COX-2, led further investigation of the effects of penstyrylpyrone (1) on LPS-induced TNF-α and IL-1β production, which are other pro-inflammatory mediators.
C57BL/6 mice were purchased from Orient Bio Co. (Sungnam, Kyung-Kido, Korea). TG-elicited peritoneal macrophages were harvested four days after intraperitoneal (i.p.) injection of 3 mL of TG [37]. Peritoneal lavage was performed using 8 mL of Hanks’ Balanced Salt Solution containing 10 U/mL heparin. The cells were distributed in Roswell Park Memorial Institute medium (RPMI) supplemented with 10% heat-inactivated FBS, in 6-well tissue culture plates (5 × 10^6 cells/mL).
The production of nitrite, a stable end product of NO oxidation, was used as a measure of iNOS activity. The nitrite present in the conditioned medium was determined using a method based on the Griess reaction.

[2] = test system: murine peritoneal macrophages; assay: Cell viability assay (MTT); set-up: dose or concentration left out as unconfirmed
[3] = test system: Nrf2; assay: Western blotting of Nrf2 nuclear translocation in macrophages; settings: 40 μM; 15, 30, 60, 90 and 120 min
Method: Figure 7 The effects of penstyrylpyrone (1) on the nuclear translocation of Nrf2 (A) and anti-oxidant response element (ARE) activation (B) in murine peritoneal macrophages. Murine peritoneal macrophages were treated with 40 μM of penstyrylpyrone (1) for 15, 30, 60, 90 and 120 min. The nuclei were fractionated from the cytosol using PER-Mammalian Protein Extraction buffer. Nrf2 protein was detected using Western blotting analysis and representative blots of three independent experiments are shown. Quiescent cells transiently transfected with ARE-luciferase or control vector were incubated for 1 h with indicated concentrations of latifolin in the presence of 5% FBS. […]
Murine peritoneal macrophages were homogenized (1:20, w:v) in PER-Mammalian Protein Extraction buffer (Pierce Biotechnology, Rockford, IL, USA) containing freshly added protease inhibitor cocktail I (EMD Biosciences, San Diego, CA, USA) and 1 mM phenylmethylsulfonyl fluoride (PMSF). […] The protein concentration was determined using the bicinchoninic acid (BCA) protein assay kit.
Western blotting analysis was performed by lysing the cells in 20 mM Tris-HCl buffer (pH 7.4) containing a protease inhibitor mixture (0.1 mM PMSF, 5 mg/mL aprotinin, 5 mg/mL pepstatin A, and 1 mg/mL chymostatin). The protein concentration was determined using a Lowry protein assay kit (P5626; Sigma Chemical Co., St. Louis, MO, USA). […]

[4] = test system: COX-2-derived PGE2 production in murine peritoneal macrophages; assay: PGE2 production in LPS-stimulated macrophages, ELISA; settings: Mus musculus, Peritoneal macrophage; pre-treated 12 h, LPS 1 μg/mL 18 h
Method: C57BL/6 mice were purchased from Orient Bio Co. (Sungnam, Kyung-Kido, Korea). TG-elicited peritoneal macrophages were harvested four days after intraperitoneal (i.p.) injection of 3 mL of TG [37]. Peritoneal lavage was performed using 8 mL of Hanks’ Balanced Salt Solution containing 10 U/mL heparin. The cells were distributed in Roswell Park Memorial Institute medium (RPMI) supplemented with 10% heat-inactivated FBS, in 6-well tissue culture plates (5 × 10^6 cells/mL). The level of PGE2, TNF-α or IL-1β present in each sample was determined using a commercially available kit from R & D Systems. The assay was performed according to the manufacturer’s instructions. Briefly, murine peritoneal macrophages were cultured in 24-well plates, pre-incubated for 12 h with different concentrations of compounds 1–3, and then stimulated for 18 h with LPS. The cell culture supernatants were then immediately collected after treatment and centrifuged at 13,000× g for 2 min to remove particulate matter. The medium was added to a 96-well plate pre-coated with affinity-purified PGE2-specific polyclonal antibodies or the medium was added to a 96-well plate pre-coated with affinity-purified polyclonal antibodies that were specific to mouse TNF-α or IL-1β. An enzyme-linked polyclonal antibody specific for PGE2, mouse TNF-α or IL-1β was added to the wells for 20 h, followed by a final wash to remove any unbound antibody-enzyme reagent. A substrate solution was added, and the intensity of the color produced, which was measured at 450 nm (the correction wavelength was set at 540 nm or 570 nm), was proportional to the amount of PGE2, TNF-α or IL-1β present.

- IC50 [1]: 12.3 µM
- IC50 [4]: 9.35 µM
Compound: COc1cc(/C=C/c2ccccc2)oc(=O)c1C [Penstyrylpyrone (1), penstyrylpyrone]
- Cytotoxicity (cell viability) [2]: non-cytotoxic
- Nrf2 levels in nuclear fractions [3]: gradual increase in Nrf2 levels
